The values below come from US20140272066A1, “GLUTAMIC ACID DERIVATIVES” (Givaudan S.A., priority 2011, published 2014).

Assay [1] in a line: Flavourist comparison of bouillon with and without compound. It counts as in vivo, human. The following applies: 200 ppm in bouillon; 4 flavourists. As to the method: A bouillon mix was prepared from 155.0 g of sodium chloride, 157.0 g of dextrose monohydrate (ex Tapioca), 0.2 g of celery oleoresin, 0.3 g of oleoresin turmeric Vegex, 0.2 g of oleoresin coriander seed, 444.8 g maltodextrin 5-8 DE, 40.0 g vegetable oil soya bean refined, 30.0 g yeast standard light, 4.0 g of onion powder, 4.0 g of garlic powder, 0.5 g of white pepper and 164.0 g of potato starch.
32 g of the well-mixed ingredients was added to 1 L of boiling water and stirred until completely dissolved.
A small group of flavourists (2 male, 2 female) compared the taste of the reference bouillon with that of a batch of the same bouillon containing 200 ppm of DL-threo-3-methylglutamic acid.

A short description of assay [2]: Flavourist taste panel, solution B (with compound) rated against reference solution A. The settings on record: 10 ppm compound in 0.5% NaCl and 0.03% MSG, vs solution A; scale -3 (much lower than base) to 3 (much higher); average of 4 flavourists. It counts as in vivo, human. As to the method: Two solutions were prepared:
The samples were tasted by a small group of flavourists (2 male, 2 female, aged between 30 and 60). The intensity of the umami and salt taste of solution B was compared with that of the reference (solution A) and rated according to the following intensity scale:
The results (average of ratings given by the flavourists) were: […]

Assay [3] in a line: Flavourist comparison of white sauce with and without compound. It counts as in vivo, human. The settings on record: 200 ppm in white sauce; 4 flavourists. As to the method:
A white sauce mix was prepared from 380 g of modified starch Prejel, 200 g of whey powder Esprion 300, 200 g of fat powder (ex DMV), 115 g of sodium chloride, 85.3 g of maltodextrin 14, 3 g of onion powder, 0.2 g of curcuma extract powder (ex turmeric), 1.5 g of white pepper and 15 g of probase high impact.
80 g of the well-mixed ingredients was added to 1 L of boiling water and stirred well.
A small group of flavourists (2 male, 2 female) compared the taste of the reference white sauce with that of a batch of the same white sauce containing 200 ppm of DL-threo-3-methylglutamic acid.

Assay [4] can be described thus: Flavourist comparison of Béchamel sauce with cheese with and without compound. It counts as in vivo, human. The following applies: 200 ppm in Béchamel sauce with cheese; 4 flavourists. As to the method:
A Béchamel sauce with cheese was prepared from 70 g of butter, 50 g of flower, 1000 g of milk, 5 g of sodium chloride, 0.3 g of MSG, 0.15 g of nutmeg powder, 0.25 g of black pepper and 80 g of cheese powder. A blanc roux was prepared from the butter and flower before adding the other ingredients.
A small group of flavourists (2 male, 2 female) compared the taste of the reference Béchamel sauce with cheese with that of a batch of the same Béchamel sauce with cheese containing 200 ppm of DL-threo-3-methylglutamic acid.

The conditions of assay [5]: at concentrations comparable to MSG; cited from earlier work.

Each structure is given as a SMILES string.

On to `CC(CC(=O)O)C(N)C(=O)O` (racemic) [DL-threo-3-methylglutamic acid, DL-threo-3-methylglutamic Acid], for which, in assay [1], the “Taste of test bouillon compared with reference bouillon” value was “more umami, had an enhanced body of salt and was more salivating”. In assay [2], the “Intensity Taste Salt (NaCl)” value was found to be 0.33 and the “Intensity Taste Umami” value is on record as 1.00. In addition, the “Taste of test white sauce compared with reference sauce” value in assay [3] is “fuller and slightly more umami”. Besides, in assay [4], the “Taste of test Béchamel sauce with cheese compared with reference” value was “richer and more longlasting”.
On to `CCCCCC(CC(=O)O)C(N)C(=O)O` (stereo not shown) [2-amino-3-pentylpentanedioic acid, 2-amino-3-pentylpentanedioic Acid], for which, in assay [2], the “Intensity Taste Salt (NaCl)” value was 0.00 and the “Intensity Taste Umami” value is recorded as 0.33.
As for `CCCC(CC(=O)O)C(N)C(=O)O` (stereo not shown) [2-amino-3-propylpentanedioic acid, 2-amino-3-propylpentanedioic Acid], in assay [2], the “Intensity Taste Salt (NaCl)” value is given as 0.33 and the “Intensity Taste Umami” value was 0.33.
In the case of `N[C@@H](CC(=O)O)C(=O)O` [aspartic acid], the Umami taste entry in assay [5] is on record as “hardly any umami taste”.
